Laboratory results published in patent publication US9283269B2, “Method for reducing the allergenicity of animal dander” (IMMUNOPATH PROFILE, INC., priority 1998, dated 2016).

Key:
[1] = system: pediatric liver transplant recipients; details: of 64 pediatric liver transplant recipients; cited from earlier work
[2] = uric acid crystals; cited from earlier work
[3] = ionizing side chain of the amino acid residue; cited from earlier work
[4] = cited from earlier work; for absorption after oral administration: gastrointestinal tract
[5] = system: dermatitis and fungal infection of the toe nail; details: 50% acetic acid, brief periods of application
Description: Ammoniated butyric acid is […]. […] The acetic acid represents the deaminated glycine in this subject composition can be applied one to seven days per week and can be applied multiple times in one day. The duration of application can range from 2 to 60 minutes (or any other chosen interval) per application.

[6] = system: breast cancer cells; assay: Breast cancer cell suspension in vitro treated with polysorbate 80; format: cell-based
Excerpt: Parkinson's disease also has an abnormal protein alpha synuculein intracytoplasmic aggregate/inclusion. Lewy bodies instead of normal random coil repeat proteins structures, cancer with deficiency in HLB modulation and adequate surfactant required by DNA progress through normal rheologic flow required in mitosis with normal cellular and nuclear division and sharing of DNA genetic traits and the resultant formation of normal daughter cells. The darkly stained nuclear mitotic figures makes its appearance as an aggregate plaque or precipitate removed from the normal flow of nuclear function and the microcirculation of nuclear DNA genetic nuclear focus and originating cell division. Response to hydrophilic surfactant in vitro is supportive of this thesis (83 percent of the breast cancer cells were killed in 24 to 48 hours with exposure to 0.25 percent polysorbate 80, Tween 80). Again countering the poor solubility of the plaque-like mechanism disease which contributes to metabolization and the normal metabolic turnover of all cell tissue and organs brings about a disease-free therapeutic response. About one-third of these cancers are associated with inflammatory immunologic response T lymphocytic-plasma cell changes and are of poor prognosis. Response to HLB modulation towards a hydrophilic HLB has provided an 83 percent in-vitro encouraging response reported in other embodiment.
Successful anticancer therapeutic activity cancer tissue cell in vitro′ breast cancer cell suspension comparative trials with treatment with 0.25 percent to 0.5 percent polysorbate 80 (Mean 80) with 83 percent reduction in 24 to 48 hours of cancer cell mitochondrial activity after HLB modulation with tween 80, and 50 percent reduction in cancer cells' abnormal morphology and abnormal mitosis on cytopathologic review.

C=CC[C@@H]1/C=C(\C)C[C@H](C)C[C@H](OC)[C@H]2O[C@@](O)(C(=O)C(=O)N3CCCC[C@H]3C(=O)O[C@H](/C(C)=C/[C@@H]3CC[C@@H](O)[C@H](OC)C3)[C@H](C)[C@@H](O)CC1=O)[C@H](C)C[C@@H]2OC [tacrolimus]
patients who experienced food allergies [1]: 17%
patients who experienced food allergies (number) [1]: 11

O=c1[nH]c(=O)c2[nH]c(=O)[nH]c2[nH]1 [uric acid]
solubility in glycerine [2]: very soluble
solubility in water [2]: marked insolubility

N[C@@H](CS)C(=O)O [Cys, cysteine]
pK of side chain [3]: 7.5-8.5

COc1ccc2c(c1)c(CC(=O)O)c(C)n2C(=O)c1ccc(Cl)cc1 [Indomethacin]
steady-state concentrations in plasma ([4]; after long-term administration): approximately 0.5 micrograms/ml
time to peak concentration in plasma ([4]; fasting subject, oral): ≤ 2 h
absorption after oral administration [4]: rapidly and almost completely absorbed
bound to plasma proteins ([4]; in vivo): 90%
converted by O-demethylation ([4]; inactive metabolites): about 50%
converted by conjugation with glucuronic acid ([4]; inactive metabolites): about 10%
concentrations in plasma required for an anti-inflammatory effect ([4]; not definitely determined): less than 1 microgram per ml

N[C@@H](CC(=O)O)C(=O)O [Asp, aspartic acid]
pK of side chain [3]: 4.2-4.5

NCCCC[C@H](N)C(=O)O [Lys, lysine]
pK of side chain [3]: 9.8-10.4
ΔH [3]: 42 to 48.4 kJ/mol

O=C(O)c1cc(/N=N/c2ccc(S(=O)(=O)Nc3ccccn3)cc2)ccc1O [Sulfasalazine, salicylazosulfapyridine]
absorption after oral administration [4]: poorly absorbed

N[C@@H](Cc1c[nH]cn1)C(=O)O [His, histidine]
pK of side chain [3]: 6.2-6.5
ΔH [3]: 29 to 31.5 kJ/mol

N=C(N)NCCC[C@H](N)C(=O)O [Arg, arginine]
ΔH [3]: 48.4 to 54.6 kJ/mol

CC(=O)O [acetic acid]
effect on dermatitis and fungal toe nail infection [5]: dramatically reverse long-term dermatitis and, fungal infection of the toe nail

CCCCCCCC/C=C\CCCCCCCC(=O)OCCOCC(OCCO)C1OCC(OCCO)C1OCCO (stereo not drawn) [polysorbate 80]
breast cancer cells killed ([6]; 0.25 percent polysorbate 80, 24 to 48 hours): 83%
reduction in cancer cells' abnormal morphology and abnormal mitosis on cytopathologic review ([6]; 0.25 percent to 0.5 percent polysorbate 80): 50%
reduction of cancer cell mitochondrial activity ([6]; 0.25 percent to 0.5 percent polysorbate 80, 24 to 48 hours): 83%

N[C@@H](CCC(=O)O)C(=O)O [Glu, glutamic acid]
pK of side chain [3]: 4.3-4.6
